Consider 23 compounds from patent US9630922B2, “3-spiro-7-hydroxamic acid tetralins as HDAC inhibitors” (Forma Therapeutics, Inc., priority 2015, dated 2017).

The test addresses T1, HDAC6 (Homo sapiens, UniProt Q9UBN7).
T1 construct: Full length human recombinant HDAC6 protein was expressed in baculoviral system; made in house; host or cells: baculoviral system
T1 sequence (Q9UBN7 1-1215): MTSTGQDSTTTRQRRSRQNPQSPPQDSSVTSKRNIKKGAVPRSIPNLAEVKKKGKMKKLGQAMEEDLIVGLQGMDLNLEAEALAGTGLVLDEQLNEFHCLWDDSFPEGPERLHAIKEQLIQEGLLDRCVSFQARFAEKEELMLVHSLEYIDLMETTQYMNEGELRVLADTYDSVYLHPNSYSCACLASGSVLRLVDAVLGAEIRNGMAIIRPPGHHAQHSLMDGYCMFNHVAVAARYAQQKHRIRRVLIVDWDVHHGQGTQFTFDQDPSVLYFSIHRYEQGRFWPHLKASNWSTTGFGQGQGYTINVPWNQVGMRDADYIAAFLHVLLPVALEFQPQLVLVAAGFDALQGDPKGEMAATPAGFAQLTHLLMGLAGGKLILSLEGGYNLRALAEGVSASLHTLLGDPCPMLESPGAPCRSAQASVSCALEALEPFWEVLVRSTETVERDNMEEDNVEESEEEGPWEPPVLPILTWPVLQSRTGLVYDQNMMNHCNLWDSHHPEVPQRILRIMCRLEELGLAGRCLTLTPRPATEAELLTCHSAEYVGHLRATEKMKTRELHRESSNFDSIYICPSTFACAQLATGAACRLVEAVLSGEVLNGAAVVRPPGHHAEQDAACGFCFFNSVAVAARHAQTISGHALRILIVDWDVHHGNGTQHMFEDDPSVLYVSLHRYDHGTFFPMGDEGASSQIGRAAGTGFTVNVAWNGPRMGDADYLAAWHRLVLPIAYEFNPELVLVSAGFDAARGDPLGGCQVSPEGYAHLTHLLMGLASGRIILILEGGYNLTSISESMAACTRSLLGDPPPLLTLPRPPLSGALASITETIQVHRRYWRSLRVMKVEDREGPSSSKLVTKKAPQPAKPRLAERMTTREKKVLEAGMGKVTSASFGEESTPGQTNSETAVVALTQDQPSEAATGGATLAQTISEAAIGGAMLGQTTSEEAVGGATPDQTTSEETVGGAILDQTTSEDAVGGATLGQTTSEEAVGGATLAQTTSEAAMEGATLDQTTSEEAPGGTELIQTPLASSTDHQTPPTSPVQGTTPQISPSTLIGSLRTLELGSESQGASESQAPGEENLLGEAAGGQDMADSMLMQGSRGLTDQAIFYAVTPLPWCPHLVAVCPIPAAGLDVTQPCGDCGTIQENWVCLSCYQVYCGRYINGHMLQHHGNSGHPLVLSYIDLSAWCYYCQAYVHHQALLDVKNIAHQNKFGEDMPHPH
Briefly: In vitro Histone Deacetylase Assay (enzymatic HDAC6 electrophoretic mobility shift assay). Format: biochemical. Conditions: full length human recombinant HDAC6, 1 nM enzyme, 2 μM peptide substrate RHKK(Ac)-NH2, 25° C.; read-out: HDAC6 activity range. As for the experimental part: The enzymatic HDAC6 assay was performed using electrophoretic mobility shift assay. Full length human recombinant HDAC6 protein was expressed in baculoviral system and purified by affinity chromatography. The enzymatic reactions were assembled in 384 well plates in a total volume of 25 μL in a reaction buffer composing: 100 mM HEPES, pH7.5, 25 mM KCl, 0.1% bovine serum albumin, 0.01% Triton X-100, 1% DMSO (from compounds) 2 μM of the fluorescently labeled peptide substrate and enzyme. The enzyme was added at a final concentration of 1 nM. The peptide substrate RHKK(Ac)—NH2 was used. The compounds were tested at 12 concentrations spaced by 3× dilution intervals. Negative control samples (0%-inhibition in the absence of inhibitor) and positive control samples (100%-inhibition) were assembled in replicates of four in each assay plate. The reactions were incubated at 25° C. and quenched by the addition of 45 μL of termination buffer (100 mM HEPES, pH 7.5, 0.01% Triton X-100, 0.05% SDS).
The terminated assay plates were analyzed on LabChip® 3000 microfluidic electrophoresis instrument (Perkin Elmer/Caliper Life Sciences). The fluorescence intensity of the electrophoretically separated de-acetylated product and substrate peptide was measured. Activity in each sample was determined as the product to sum ratio (PSR): P/(S+P), where P is the peak height of the product peptide and S is the peak height of the substrate peptide. Percent inhibition (Pinh) is determined using the following equation:
Pinh=(PSR0%−PSRinh)/(PSR0%−PSR100%)*100, where PSRinh is the product sum ratio in the presence of inhibitor, PSR0% is the average product sum ration in the absence of inhibitor and PSR100% is the average product sum ratio in 100%-inhibition control samples. The IC50 values of inhibitors were determined by fitting the %-inhibition curves with 4 parameter dose-response model using XLfit 4 software.
As set forth in Table-31, below, IC50 values are defined as follows: IC50≦0.1 μM (+++); IC50>0.1 μM and ≦0.5 μM (++); IC50>0.5 μM (+).
Background: Mobility shift assays separate free from complexed probe on a gel.
As for `O=C(NO)c1ccc2c(c1)CC[C@]1(CCN(c3ccccn3)C1=O)C2` [Compound I-20, (R)-N-hydroxy-2′-oxo-1′-(pyridin-2-yl)-3,4-dihydro-1H-spiro[naphthalene-2,3′-pyrrolidine]-6-carboxamide], the IC50 was ≤ 100 nM. Take `O=C(NO)c1ccc2c(c1)CC[C@@]1(CCN(c3ccccn3)C1=O)C2` [Compound I-21, (S)-N-hydroxy-2′-oxo-1′-(pyridin-2-yl)-3,4-dihydro-1H-spiro[naphthalene-2,3′-pyrrolidine]-6-carboxamide]: the IC50 is ≤ 100 nM. On to `COCCn1c(CN2CC[C@]3(CCc4cc(C(=O)NO)ccc4C3)C2=O)nc2ccccc21` [Compound I-22, (R)-N-hydroxy-1′-((1-(2-methoxyethyl)-1H-benzo[d]imidazol-2-yl)methyl)-2′-oxo-3,4-dihydro-1H-spiro[naphthalene-2,3′-pyrrolidine]-6-carboxamide], for which the IC50 is ≤ 100 nM. The figure for `COCCn1c(CN2CC[C@@]3(CCc4cc(C(=O)NO)ccc4C3)C2=O)nc2ccccc21` [Compound I-23, (S)-N-hydroxy-1′-((1-(2-methoxyethyl)-1H-benzo[d]imidazol-2-yl)methyl)-2′-oxo-3,4-dihydro-1H-spiro[naphthalene-2,3′-pyrrolidine]-6-carboxamide] is ≤ 100 nM. To `CC(C)N1CC[C@]2(CCc3cc(C(=O)NO)ccc3C2)C1=O` [Compound I-24, (R)-N-hydroxy-1′-isopropyl-2′-oxo-3,4-dihydro-1H-spiro[naphthalene-2,3′-pyrrolidine]-6-carboxamide] belongs ≤ 100 nM; to `CC(C)N1CC[C@@]2(CCc3cc(C(=O)NO)ccc3C2)C1=O` [Compound I-25, (S)-N-hydroxy-1′-isopropyl-2′-oxo-3,4-dihydro-1H-spiro[naphthalene-2,3′-pyrrolidine]-6-carboxamide], ≤ 100 nM; to `O=C(NO)c1ccc2c(c1)CC[C@]1(CCN(c3ccccc3)C1=O)C2` [Compound I-26, (R)-N-hydroxy-2′-oxo-1′-phenyl-3,4-dihydro-1H-spiro[naphthalene-2,3′-pyrrolidine]-6-carboxamide], ≤ 100 nM.

Turning to `O=C(NO)c1ccc2c(c1)CC[C@]1(CCNC1=O)C2` [Compound I-27, (R)-N-hydroxy-2′-oxo-3,4-dihydro-1H-spiro[naphthalene-2,3′-pyrrolidine]-6-carboxamide], the IC50 is ≤ 100 nM. Take `O=C(NO)c1ccc2c(c1)CC[C@@]1(CCNC1=O)C2` [Compound I-28, (S)-N-hydroxy-2′-oxo-3,4-dihydro-1H-spiro[naphthalene-2,3′-pyrrolidine]-6-carboxamide]: the IC50 was ≤ 100 nM. To `O=C(NO)c1ccc2c(c1)CC[C@@]1(CCN(c3ccccc3)C1=O)C2` [Compound I-29, (S)-N-hydroxy-2′-oxo-1′-phenyl-3,4-dihydro-1H-spiro[naphthalene-2,3′-pyrrolidine]-6-carboxamide] belongs ≤ 100 nM; to `O=C(NO)c1ccc2c(c1)CC[C@]1(CCN(Cc3cnc(Cl)s3)C1=O)C2` [Compound I-30, (R)-1′-((2-chlorothiazol-5-yl)methyl)-N-hydroxy-2′-oxo-3,4-dihydro-1H-spiro[naphthalene-2,3′-pyrrolidine]-6-carboxamide], ≤ 100 nM. To `O=C(NO)c1ccc2c(c1)CC[C@]1(CCN(Cc3cnc(O)s3)C1=O)C2` [Compound I-31, (R)-N-hydroxy-1′-((2-hydroxythiazol-5-yl)methyl)-2′-oxo-3,4-dihydro-1H-spiro[naphthalene-2,3′-pyrrolidine]-6-carboxamide] belongs ≤ 100 nM; to `CCCN1CC[C@]2(CCc3cc(C(=O)NO)ccc3C2)C1=O` [Compound I-32, (R)-N-hydroxy-2′-oxo-1′-propyl-3,4-dihydro-1H-spiro[naphthalene-2,3′-pyrrolidine]-6-carboxamide], ≤ 100 nM.

With `O=C(NO)c1ccc2c(c1)CC[C@]1(CCN(CC3CCC3)C1=O)C2` [Compound I-33, (R)-1′-(cyclobutylmethyl)-N-hydroxy-2′-oxo-3,4-dihydro-1H-spiro[naphthalene-2,3′-pyrrolidine]-6-carboxamide], the IC50 is ≤ 100 nM. Consider `CC(C)CCN1CC[C@]2(CCc3cc(C(=O)NO)ccc3C2)C1=O` [Compound I-34], for which the IC50 was ≤ 100 nM. To `CC#CCN1CC[C@]2(CCc3cc(C(=O)NO)ccc3C2)C1=O` [Compound I-35, (R)-1′-(but-2-yn-1-yl)-N-hydroxy-2′-oxo-3,4-dihydro-1H-spiro[naphthalene-2,3′-pyrrolidine]-6-carboxamide] belongs ≤ 100 nM. As to `COCCN1CC[C@]2(CCc3cc(C(=O)NO)ccc3C2)C1=O` [Compound I-36, (R )-N-hydroxy-1′-(2-methoxyethyl)-2′-oxo-3,4-dihydro-1H-spiro[naphthalene-2,3′-pyrrolidine]-6-carboxamide], the IC50 was ≤ 100 nM.

For `O=C(NO)c1ccc2c(c1)CC[C@]1(CCN(C/C=C/c3ccccc3)C1=O)C2` [Compound I-37, (R)-1′-cinnamyl-N-hydroxy-2′-oxo-3,4-dihydro-1H-spiro[naphthalene-2,3′-pyrrolidine]-6-carboxamide], the IC50 was ≤ 100 nM. To `Cc1ccccc1CN1CC[C@]2(CCc3cc(C(=O)NO)ccc3C2)C1=O` [Compound I-38, (R)-N-hydroxy-1′-(2-methylbenzyl)-2′-oxo-3,4-dihydro-1H-spiro[naphthalene-2,3′-pyrrolidine]-6-carboxamide] belongs ≤ 100 nM; to `O=C(NO)c1ccc2c(c1)CC[C@]1(CCN(Cc3ccccc3C(F)(F)F)C1=O)C2` [Compound I-39, (R)-N-hydroxy-2′-oxo-1′-(2-(trifluoromethyl)benzyl)-3,4-dihydro-1H-spiro[naphthalene-2,3′-pyrrolidine]-6-carboxamide], ≤ 100 nM; to `O=C(NO)c1ccc2c(c1)CC[C@]1(CCN(Cc3ccccc3Cl)C1=O)C2` [Compound I-40, (R)-1′-(2-chlorobenzyl)-N-hydroxy-2′-oxo-3,4-dihydro-1H-spiro[naphthalene-2,3′-pyrrolidine]-6-carboxamide], ≤ 100 nM. To `O=C(NO)c1ccc2c(c1)CC[C@]1(CCN(Cc3ccccc3OC(F)(F)F)C1=O)C2` [Compound I-41, (R)-N-hydroxy-2′-oxo-1′-(2-(trifluoromethoxy)benzyl)-3,4-dihydro-1H-spiro[naphthalene-2,3′-pyrrolidine]-6-carboxamide] belongs ≤ 100 nM; to `O=C(NO)c1ccc2c(c1)CC[C@]1(CCN(Cc3ccc4nonc4c3)C1=O)C2` [Compound I-42, (R)-1′-(benzo[c][1,2,5]oxadiazol-5-ylmethyl)-N-hydroxy-2′-oxo-3,4-dihydro-1H-spiro[naphthalene-2,3′-pyrrolidine]-6-carboxamide], ≤ 100 nM.
